ChEMBL document CHEMBL1142781, “Chemical modification of the naphthoyl 3-position of JWH-015: in search of a fluorescent probe to the cannabinoid CB2 receptor” (Bioorg Med Chem Lett, 2005)

How the values were obtained:
[1] = target: T1, Cannabinoid receptor 2 (Homo sapiens, UniProt P34972); experiment: In vitro inhibitory activity towards human cannabinoid receptors 2 using fluorescence assay
[2] = target: T1, Cannabinoid receptor 2; experiment: Percentage ([35S]GTP-gamma-S binding was determined from basal towards human cannabinoid receptor 2 at 1 uM concentration […]; type: functional
[3] = target: T1, Cannabinoid receptor 2; experiment: In vitro inhibitory activity towards human cannabinoid receptors 2 using fluorescence assay at 10 uM concentration; set-up: scale not given: the % may be the effect or the level left

T1 sequence (P34972 whole entry): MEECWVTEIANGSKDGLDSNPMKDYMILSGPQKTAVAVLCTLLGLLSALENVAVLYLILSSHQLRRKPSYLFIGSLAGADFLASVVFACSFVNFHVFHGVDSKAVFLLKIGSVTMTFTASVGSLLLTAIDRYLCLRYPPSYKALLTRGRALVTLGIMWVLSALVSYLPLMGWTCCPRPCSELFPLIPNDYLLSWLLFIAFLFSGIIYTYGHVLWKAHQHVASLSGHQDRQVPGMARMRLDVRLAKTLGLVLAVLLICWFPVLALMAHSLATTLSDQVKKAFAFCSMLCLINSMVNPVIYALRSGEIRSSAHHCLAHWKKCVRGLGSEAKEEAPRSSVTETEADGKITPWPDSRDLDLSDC

SMILES	Ki [1] [nM]	Activity [2] [%]	Activity [3] [%]
CCCn1c(C)c(C(=O)c2cc(N)cc3ccccc23)c2ccccc21	191	151	
CCCn1c(C)c(C(=O)c2cc(NC(=O)CN)cc3ccccc23)c2ccccc21	420		
CCCn1c(C)c(C(=O)c2cc([N+](=O)[O-])cc3ccccc23)c2ccccc21	143	134	
CCCn1c(C)c(C(=O)c2cc(NC(=O)CNc3ccc([N+](=O)[O-])c4nonc34)cc3ccccc23)c2ccccc21			25
CCCn1c(C)c(C(=O)c2cccc3ccccc23)c2ccccc21		142	
